This passage reports inhibition results from patent US20130150340A1, “6-(4-Hydroxy-phenyl)-1H-pyrazolo[3,4-b]pyridine-4-carboxylic acid amide derivatives as kinase inhibitors” (SANOFI, priority 2011, published 2013).

Each structure is given as a SMILES string.

T1 sequence (P05771 1-673 isoform P05771-2): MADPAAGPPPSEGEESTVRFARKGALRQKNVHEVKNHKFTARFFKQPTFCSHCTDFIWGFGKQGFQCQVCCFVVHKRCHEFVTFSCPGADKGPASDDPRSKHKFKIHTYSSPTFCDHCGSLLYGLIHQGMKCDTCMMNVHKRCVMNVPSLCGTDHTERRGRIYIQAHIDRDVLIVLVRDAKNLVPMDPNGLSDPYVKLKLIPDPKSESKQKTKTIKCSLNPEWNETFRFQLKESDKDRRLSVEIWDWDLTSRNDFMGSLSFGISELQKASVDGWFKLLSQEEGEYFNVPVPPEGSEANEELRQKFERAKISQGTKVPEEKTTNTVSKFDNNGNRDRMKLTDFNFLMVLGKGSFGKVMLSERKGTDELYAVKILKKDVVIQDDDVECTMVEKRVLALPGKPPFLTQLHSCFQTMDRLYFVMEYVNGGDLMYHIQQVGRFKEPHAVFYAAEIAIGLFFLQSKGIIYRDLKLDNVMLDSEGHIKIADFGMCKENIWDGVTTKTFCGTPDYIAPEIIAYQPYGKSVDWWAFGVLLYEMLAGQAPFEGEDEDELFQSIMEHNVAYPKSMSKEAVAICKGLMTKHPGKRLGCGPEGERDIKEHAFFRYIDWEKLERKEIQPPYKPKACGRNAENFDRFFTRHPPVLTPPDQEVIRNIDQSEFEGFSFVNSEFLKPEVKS

This assay addresses T1, human full-length recombinant PKC βII (Homo sapiens, UniProt P05771).
T1 construct: Active human full-length recombinant PKC βII; purchased Invitrogen GmbH, Darmstadt, Germany
The experiment in a line: Determination of PKC βII inhibition (Caliper mobility-shift kinase assay). Format: biochemical. The following applies: example compounds at a final concentration of 1.14 μM (±0.15 μM); 60 min incubation at 32° C. How it is done:
Determination of PKC 3H Inhibition
PKC βII inhibition was determined according to the following protocol:
Active human full-length recombinant PKC βII and the peptide substrate, Fluorescein-RFARKGSLRQKNV, were purchased from Invitrogen GmbH, Darmstadt, Germany. Adenosine-5′-triphosphate (ATP), bovine serum albumine (BSA), dimethylsulphoxide (DMSO), 4-(2-hydroxyethyl)piperazine-1-ethanesulfonic acid (Hepes), Triton X-100, 1,2-Dioleoyl-sn-glycerol (DAG), L-α-Phosphatidyl-L-serine (PS), calcium chloride (CaCl2), and Pluronic F-68 were purchased from Sigma-Aldrich, Munich, Germany. Magnesium chloride, 1 M sodium hydroxide solution, 1M hydrochloric acid solution and EDTA were obtained from Merck Biosciences, Darmstadt, Germany.
Test compounds were diluted to three times the test concentration in buffer 1 (30 mM Hepes-NaOH, pH 7.4, 0.01% Pluronic F-68 and 3% (v/v) DMSO). The PKC βII enzyme was diluted to a concentration of 30 ng/ml in buffer 2 (30 mM Hepes-NaOH, pH 7.4, 15 mM MgCl2, 150 μM CaCl2, 150 μg/ml PS, 60 μg/ml DAG, and 0.045% (w/v) Triton X-100). The peptide substrate and ATP were diluted to concentrations of 3 μM and 120 μM, respectively, in buffer 2. Two μl of the compound solution were mixed with 2 μl of the diluted enzyme in a 384-well small volume microtiter plate (Greiner, Bio-One, Frickenhausen, Germany), and the kinase reaction was initiated by addition of 2 μl of the solution containing peptide substrate and ATP. After 60 min incubation at 32° C., the reaction was stopped by addition of 20 μl of a solution containing 130 mM Hepes-NaOH, pH 7.4, 0.0195% (v/v) Brij-35, 6.5 mM EDTA, 0.13% chip coating reagent 3 (Caliper Lifescience Inc, Hopkinton, Mass.) and 6.5% (v/v) DMSO. Phosphorylation of the substrate peptide was then detected on a Caliper 3000 instrument essentially as described by Pommereau et al (J. Biomol. Screening 2004, 9(5), […]), Separation conditions were as follows: Pressure −0.8 psi, upstream voltage −3000 V, downstream voltage −800 V. Positive controls (buffer 1 instead of compound) and negative controls (buffer 1 instead of compound and buffer 2 instead of kinase solution) were run in parallel on each plate. Fractional turnover (R) was determined as the height of the peak of the phosphorylated peptide product divided by the sum of the unphosphorylated substrate and phosphorylated product peak heights. Percent-inhibition values for the test compounds were determined using the formula
% Inhibition=100*(1−(Rcompound−Rnegative control)/(Rpositive control−Rnegative control).
What is called inhibition is how much of the control response was suppressed. Turning to `O=C(NC1CCNC1)c1cc(-c2ccc(O)cc2)nc2[nH]ncc12` (stereo not shown) [Example 5, 6-(4-Hydroxy-phenyl)-1H-pyrazolo[3,4-b]pyridine-4-carboxylic acid pyrrolidin-3-ylamide], the inhibition at 1.14 µM came to 85%.

Take `N[C@H]1CC[C@H](NC(=O)c2cc(-c3ccc(O)cc3)nc3[nH]ncc23)CC1` [Example 9, 6-(4-Hydroxy-phenyl)-1H-pyrazolo[3,4-b]pyridine-4-carboxylic acid (trans-4-amino-cyclohexyl)-amide]: the inhibition at 1.14 µM was 82%.

With `CN1CC(NC(=O)c2cc(-c3ccc(O)cc3)nc3[nH]ncc23)C1` [Example 62, 6-(4-Hydroxy-phenyl)-1H-pyrazolo[3,4-b]pyridine-4-carboxylic acid (1-methyl-azetidin-3-yl)-amide], the inhibition at 1.14 µM worked out at 73%. For `O=C(NC1CCNC2(CCC2)C1)c1cc(-c2ccc(O)cc2)nc2[nH]ncc12` (stereo not shown) [Example 32, 6-(4-Hydroxy-phenyl)-1H-pyrazolo[3,4-b]pyridine-4-carboxylic acid (5-aza-spiro[3.5]non-8-yl)-amide] the value was 69%; for `O=C(c1cc(-c2ccc(O)cc2)nc2[nH]ncc12)N1CCOC2(CCCNC2)C1` (stereo not shown) [Example 27, [6-(4-Hydroxy-phenyl)-1H-pyrazolo[3,4-b]pyridin-4-yl]-(1-oxa-4,8-diaza-spiro[5.5]undec-4-yl)-methanone], 42%. The same measure for `CC(=O)N1CCN(C(=O)c2cc(-c3ccc(O)cc3)nc3[nH]ncc23)CC1` [Example 53, 1-{4-[6-(4-Hydroxy-phenyl)-1H-pyrazolo[3,4-b]pyridine-4-carbonyl]-piperazin-1-yl}-ethanone]: 46%. The same measure for `CN1CCN(C(=O)c2cc(-c3ccc(O)cc3)nc3[nH]ncc23)CC1=O` [Example 76, 4-[6-(4-Hydroxy-phenyl)-1H-pyrazolo[3,4-b]pyridine-4-carbonyl]-1-methyl-piperazin-2-one]: 30%.

For `O=C(NC1CNC1)c1cc(-c2ccc(O)cc2)nc2[nH]ncc12` [Example 35, 6-(4-Hydroxy-phenyl)-1H-pyrazolo[3,4-b]pyridine-4-carboxylic acid azetidin-3-ylamide], the inhibition at 1.14 µM came out at 82%. For `N[C@H]1CCN(C(=O)c2cc(-c3ccc(O)cc3)nc3[nH]ncc23)C1` [Example 17, ((S)-3-Amino-pyrrolidin-1-yl)-[6-(4-hydroxy-phenyl)-1H-pyrazolo[3,4-b]pyridin-4-yl]-methanone] the value was 64%.

In the case of `N[C@H]1C[C@H](NC(=O)c2cc(-c3ccc(O)cc3)nc3[nH]ncc23)C1` [Example 30, 6-(4-Hydroxy-phenyl)-1H-pyrazolo[3,4-b]pyridine-4-carboxylic acid (trans-3-amino-cyclobutyl)-amide], the inhibition at 1.14 µM was 68%. The same measure for `O=C(c1cc(-c2ccc(O)cc2)nc2[nH]ncc12)N1CC2CNCC2C1` (stereo not shown) [Example 46, (Hexahydro-pyrrolo[3,4-c]pyrrol-2-yl)-[6-(4-hydroxy-phenyl)-1H-pyrazolo[3,4-b]pyridin-4-yl]-methanone]: 39%; for `O=C(NC1CCN(Cc2ccncc2)CC1)c1cc(-c2ccc(O)cc2)nc2[nH]ncc12` [Example 75, 6-(4-Hydroxy-phenyl)-1H-pyrazolo[3,4-b]pyridine-4-carboxylic acid (1-pyridin-4-ylmethyl-piperidin-4-yl)-amide]: 45%; for `O=C(NC1CC2(CCNCC2)c2ccccc21)c1cc(-c2ccc(O)cc2)nc2[nH]ncc12` (stereo not shown) [Example 50, 6-(4-hydroxy-phenyl)-1H-pyrazolo[3,4-b]pyridine-4-carboxylic acid (2,3-dihydrospiro[1H-indene-1,4′-piperidin]-3-yl)-amide]: 97%.

For the molecule `O=C(c1cc(-c2ccc(O)cc2)nc2[nH]ncc12)N1CCN(C(=O)C2CC2)CC1` [Example 57, (4-Cyclopropanecarbonyl-piperazin-1-yl)-[6-(4-hydroxy-phenyl)-1H-pyrazolo[3,4-b]pyridin-4-yl]-methanone], the inhibition at 1.14 µM turned out to be 28%. The same measure for `O=C(c1cc(-c2ccc(O)cc2)nc2[nH]ncc12)N1CCNCC1` [Example 4, [6-(4-Hydroxy-phenyl)-1H-pyrazolo[3,4-b]pyridin-4-yl]-piperazin-1-yl-methanone]: 88%; for `O=C(NC1CCN(C2CCCCC2)CC1)c1cc(-c2ccc(O)cc2)nc2[nH]ncc12` [Example 67, 6-(4-Hydroxy-phenyl)-1H-pyrazolo[3,4-b]pyridine-4-carboxylic acid (1-cyclohexyl-piperidin-4-yl)-amide]: 64%; for `CN(C)[C@H]1CCN(C(=O)c2cc(-c3ccc(O)cc3)nc3[nH]ncc23)C1` [Example 55, ((S)-3-Dimethylamino-pyrrolidin-1-yl)-[6-(4-hydroxy-phenyl)-1H-pyrazolo[3,4-b]pyridin-4-yl]-methanone]: 47%. The same measure for `N[C@H]1C[C@@H]1NC(=O)c1cc(-c2ccc(O)cc2)nc2[nH]ncc12` (racemic) [Example 51, 6-(4-Hydroxy-phenyl)-1H-pyrazolo[3,4-b]pyridine-4-carboxylic acid (trans-2-amino-cyclopropyl)-amide]: 55%; for `O=C(c1cc(-c2ccc(O)cc2)nc2[nH]ncc12)N1CCC2(CCNCC2)CC1` [Example 44, (3,9-Diaza-spiro[5.5]undec-3-yl)-[6-(4-hydroxy-phenyl)-1H-pyrazolo[3,4-b]pyridin-4-yl]-methanone]: 44%. For the molecule `O=C(NCC1CNC1)c1cc(-c2ccc(O)cc2)nc2[nH]ncc12` [Example 13, 6-(4-Hydroxy-phenyl)-1H-pyrazolo[3,4-b]pyridine-4-carboxylic acid (azetidin-3-ylmethyl)-amide], the inhibition at 1.14 µM is 39%. For `CN1CCCC(NC(=O)c2cc(-c3ccc(O)cc3)nc3[nH]ncc23)C1` (stereo not shown) [Example 41, 6-(4-Hydroxy-phenyl)-1H-pyrazolo[3,4-b]pyridine-4-carboxylic acid (1-methyl-piperidin-3-yl)-amide] the value was 73%; for `CN1CCC(N(C)C(=O)c2cc(-c3ccc(O)cc3)nc3[nH]ncc23)CC1` [Example 73, 6-(4-Hydroxy-phenyl)-1H-pyrazolo[3,4-b]pyridine-4-carboxylic acid methyl-(1-methyl-piperidin-4-yl)-amide], 31%. The same measure for `CC1CCN(C2CCN(C(=O)c3cc(-c4ccc(O)cc4)nc4[nH]ncc34)C2)CC1` (stereo not shown) [Example 65, [6-(4-Hydroxy-phenyl)-1H-pyrazolo[3,4-b]pyridin-4-yl]-[3-(4-methyl-piperidin-1-yl)-pyrrolidin-1-yl]-methanone]: 34%; for `O=C(c1cc(-c2ccc(O)cc2)nc2[nH]ncc12)N1CCC2CNCC21` (stereo not shown) [Example 34, (Hexahydro-pyrrolo[3,4-b]pyrrol-1-yl)-[6-(4-hydroxy-phenyl)-1H-pyrazolo[3,4-b]pyridin-4-yl]-methanone]: 45%; for `O=C(NC1CCN(Cc2cccnc2)CC1)c1cc(-c2ccc(O)cc2)nc2[nH]ncc12` [Example 78, 6-(4-Hydroxy-phenyl)-1H-pyrazolo[3,4-b]pyridine-4-carboxylic acid (1-pyridin-3-ylmethyl-piperidin-4-yl)-amide]: 84%. For `O=C(NC1CN2CCC1CC2)c1cc(-c2ccc(O)cc2)nc2[nH]ncc12` (stereo not shown) [Example 72, 6-(4-Hydroxy-phenyl)-1H-pyrazolo[3,4-b]pyridine-4-carboxylic acid (1-aza-bicyclo[2.2.2]oct-3-yl)-amide] the value was 78%. For `N[C@H]1CC[C@@H](CNC(=O)c2cc(-c3ccc(O)cc3)nc3[nH]ncc23)CC1` [Example 12, 6-(4-Hydroxy-phenyl)-1H-pyrazolo[3,4-b]pyridine-4-carboxylic acid (cis-4-amino-cyclohexylmethyl)-amide], the inhibition at 1.14 µM is 46%.

As to `NC1CCN(C(=O)c2cc(-c3ccc(O)cc3)nc3[nH]ncc23)C1` (stereo not shown) [Example 45, (3-Amino-pyrrolidin-1-yl)-[6-(4-hydroxy-phenyl)-1H-pyrazolo[3,4-b]pyridin-4-yl]-methanone], the inhibition at 1.14 µM was found to be 50%.
